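Five compound concentrations were applied to cells in 96-well plates for 48 hours; endpoints were derived by simple linear interpolation of the resulting dose-response curve. The concentration for 50% growth inhibition is given as GI50.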 Activity calls are given as the source filed them. Rule as the data show it: active = GI50 up to about 1.1 µM and inactive = higher.
How the values were obtained:
Experiment in all cases: NCI tumour cell line growth inhibition, 48 h
SNB-19 = tested on: SNB-19
EKVX = tested on: EKVX
OVCAR-8 = tested on: OVCAR-8
HCT-116 = tested on: HCT-116
M14 = tested on: M14
SK-MEL-5 = tested on: SK-MEL-5
IGROV-1 = tested on: IGROV-1
OVCAR-3 = tested on: OVCAR-3
HT-29 = tested on: HT-29
RXF 393 = tested on: RXF 393
HOP-92 = tested on: HOP-92
HOP-62 = tested on: HOP-62
A498 = tested on: A498
UO-31 = tested on: UO-31
SK-MEL-28 = tested on: SK-MEL-28
SF-268 = tested on: SF-268
CAKI-1 = tested on: CAKI-1
COLO 205 = tested on: COLO 205
HCC 2998 = tested on: HCC 2998
MOLT-4 = tested on: MOLT-4
SK-OV-3 = tested on: SK-OV-3
SF-539 = tested on: SF-539
DMS-114 = tested on: DMS-114
NCI-H460 = tested on: NCI-H460
OVCAR-4 = tested on: OVCAR-4
UACC-257 = tested on: UACC-257
OVCAR-5 = tested on: OVCAR-5
K562 = tested on: K562
Malme-3M = tested on: Malme-3M
KM12 = tested on: KM12
NCI-H23 = tested on: NCI-H23
DLD-1 = tested on: DLD-1
HL-60 = tested on: HL-60
KM-20L2 = tested on: KM-20L2
SF-295 = tested on: SF-295
RPMI-8226 = tested on: RPMI-8226
SK-MEL-2 = tested on: SK-MEL-2
786-0 = tested on: 786-0
SN12C = tested on: SN12C
CCRF-CEM = tested on: CCRF-CEM
UACC-62 = tested on: UACC-62
NCI-H522 = tested on: NCI-H522
A549 = tested on: A549
SW-620 = tested on: SW-620
ACHN = tested on: ACHN
SR = tested on: SR
TK-10 = tested on: TK-10
M19-MEL = tested on: M19-MEL
Hs-578T = tested on: Hs-578T
PC-3 = tested on: PC-3
MDA-MB-231 = tested on: MDA-MB-231
DU-145 = tested on: DU-145
SNB-75 = tested on: SNB-75
HCT-15 = tested on: HCT-15
U-251 = tested on: U-251
BT-549 = tested on: BT-549
NCI/ADR-RES = tested on: NCI/ADR-RES
NCI-H226 = tested on: NCI-H226
LOX IMVI = tested on: LOX IMVI
MDA-N = tested on: MDA-N
MCF7 = tested on: MCF7
MDA-MB-435 = tested on: MDA-MB-435
T47D = tested on: T47D

For `CNS(=O)(=O)NN(C)S(=O)(=O)c1ccc(C)cc1`, the GI50 (SNB-19) was > 100 µM (inactive), the GI50 (EKVX) was > 100 µM (inactive) and the GI50 (OVCAR-8) was > 100 µM (inactive). For the same molecule, the GI50 (HCT-116) was > 100 µM (inactive), the GI50 (M14) was > 100 µM (inactive) and the GI50 (SK-MEL-5) was > 100 µM (inactive). For the same molecule, the GI50 (IGROV-1) was > 100 µM (inactive), the GI50 (OVCAR-3) was > 100 µM (inactive) and the GI50 (HT-29) was > 100 µM (inactive). The GI50 (RXF 393) was > 100 µM (inactive), the GI50 (HOP-92) was > 100 µM (inactive) and the GI50 (HOP-62) was > 100 µM (inactive). For the same molecule, the GI50 (A498) was > 100 µM (inactive), the GI50 (UO-31) was > 100 µM (inactive) and the GI50 (SK-MEL-28) was > 100 µM (inactive). For the same molecule, the GI50 (SF-268) was > 100 µM (inactive), the GI50 (CAKI-1) was > 100 µM (inactive) and the GI50 (COLO 205) was > 100 µM (inactive). For the same molecule, the GI50 (HCC 2998) was > 100 µM (inactive), the GI50 (MOLT-4) was > 100 µM (inactive) and the GI50 (SK-OV-3) was > 100 µM (inactive). The GI50 (SF-539) was > 100 µM (inactive), the GI50 (DMS-114) was > 100 µM (inactive) and the GI50 (NCI-H460) was > 100 µM (inactive). For the same molecule, the GI50 (OVCAR-4) was > 100 µM (inactive), the GI50 (UACC-257) was > 100 µM (inactive) and the GI50 (OVCAR-5) was > 100 µM (inactive). For the same molecule, the GI50 (K562) was > 10 µM (inactive), the GI50 (Malme-3M) was > 100 µM (inactive) and the GI50 (KM12) was > 100 µM (inactive). For the same molecule, the GI50 (NCI-H23) was > 100 µM (inactive), the GI50 (DLD-1) was > 100 µM (inactive) and the GI50 (HL-60) was > 100 µM (inactive). The GI50 (KM-20L2) was > 100 µM (inactive), the GI50 (SF-295) was > 100 µM (inactive) and the GI50 (RPMI-8226) was > 100 µM (inactive). For the same molecule, the GI50 (SK-MEL-2) was > 100 µM (inactive), the GI50 (786-0) was > 100 µM (inactive) and the GI50 (SN12C) was > 100 µM (inactive). The GI50 (CCRF-CEM) was > 100 µM (inactive), the GI50 (UACC-62) was > 100 µM (inactive) and the GI50 (NCI-H522) was > 100 µM (inactive). The GI50 (A549) was > 100 µM (inactive), the GI50 (SW-620) was > 100 µM (inactive) and the GI50 (ACHN) was > 100 µM (inactive). For the same molecule, the GI50 (SR) was > 100 µM (inactive), the GI50 (TK-10) was > 100 µM (inactive) and the GI50 (M19-MEL) was > 100 µM (inactive).

`O=C(O)C(CO)NC(=O)C1C(C(=O)O)C(c2ccccc2[N+](=O)[O-])C=C(c2ccco2)N1c1ccncc1` (stereo unspecified) was tested, and the GI50 (SNB-19) was 12 µM (inactive), the GI50 (EKVX) was 14.9 µM (inactive) and the GI50 (Hs-578T) was 13.5 µM (inactive). The GI50 (OVCAR-8) was 5.53 µM (inactive), the GI50 (HCT-116) was 1.67 µM (inactive) and the GI50 (M14) was 4.32 µM (inactive). The GI50 (SK-MEL-5) was 4.49 µM (inactive), the GI50 (IGROV-1) was 2.04 µM (inactive) and the GI50 (OVCAR-3) was 6.28 µM (inactive). For the same molecule, the GI50 (PC-3) was 9.35 µM (inactive), the GI50 (MDA-MB-231) was 3.33 µM (inactive) and the GI50 (HT-29) was 1.81 µM (inactive). The GI50 (RXF 393) was 1.64 µM (inactive), the GI50 (DU-145) was 11.4 µM (inactive) and the GI50 (HOP-92) was 12.1 µM (inactive). The GI50 (HOP-62) was 12.2 µM (inactive), the GI50 (A498) was 11.8 µM (inactive) and the GI50 (SNB-75) was 8.97 µM (inactive). The GI50 (UO-31) was 3.68 µM (inactive), the GI50 (SK-MEL-28) was 9.55 µM (inactive) and the GI50 (SF-268) was 12.6 µM (inactive). For the same molecule, the GI50 (CAKI-1) was 8.85 µM (inactive), the GI50 (COLO 205) was 4.62 µM (inactive) and the GI50 (HCC 2998) was 4.91 µM (inactive). For the same molecule, the GI50 (MOLT-4) was 2.44 µM (inactive), the GI50 (SK-OV-3) was 15.1 µM (inactive) and the GI50 (SF-539) was 1.84 µM (inactive). The GI50 (NCI-H460) was 6.31 µM (inactive), the GI50 (OVCAR-4) was 12.7 µM (inactive) and the GI50 (UACC-257) was 3.61 µM (inactive). For the same molecule, the GI50 (OVCAR-5) was 11.7 µM (inactive), the GI50 (K562) was 1.99 µM (inactive) and the GI50 (HCT-15) was 1.95 µM. The GI50 (Malme-3M) was 13.4 µM (inactive), the GI50 (U-251) was 2.34 µM (inactive) and the GI50 (BT-549) was 5.85 µM (inactive). The GI50 (KM12) was 1.73 µM (inactive), the GI50 (NCI-H23) was 7.16 µM (inactive) and the GI50 (HL-60) was 2.97 µM (inactive). For the same molecule, the GI50 (NCI/ADR-RES) was 9.23 µM (inactive), the GI50 (NCI-H226) was 14.5 µM (inactive) and the GI50 (SF-295) was 7.05 µM (inactive). The GI50 (RPMI-8226) was 1.58 µM (inactive), the GI50 (LOX IMVI) was 1.57 µM (inactive) and the GI50 (SK-MEL-2) was 16.3 µM (inactive). For the same molecule, the GI50 (MDA-N) was 2.84 µM (inactive), the GI50 (MCF7) was 1.99 µM (inactive) and the GI50 (786-0) was 3.08 µM (inactive). The GI50 (SN12C) was 4.62 µM (inactive), the GI50 (CCRF-CEM) was 2.19 µM (inactive) and the GI50 (UACC-62) was 7.83 µM (inactive). The GI50 (NCI-H522) was 4.61 µM (inactive), the GI50 (A549) was 3.26 µM (inactive) and the GI50 (SW-620) was 1.87 µM (inactive). The GI50 (ACHN) was 1.91 µM (inactive), the GI50 (MDA-MB-435) was 5.16 µM (inactive) and the GI50 (SR) was 0.9 µM (active). The GI50 (TK-10) was 2.9 µM (inactive) and the GI50 (T47D) was 10.2 µM (inactive).

With `ClC1=C(Cl)C(Cl)(Cl)SS1` the GI50 (SNB-19) was > 10 µM (inactive), the GI50 (EKVX) was > 10 µM (inactive) and the GI50 (Hs-578T) was > 10 µM (inactive). The GI50 (OVCAR-8) was > 6.41 µM (inactive), the GI50 (HCT-116) was > 4.57 µM (inactive) and the GI50 (M14) was 3.8 µM (inactive). The GI50 (SK-MEL-5) was > 7.01 µM (inactive), the GI50 (IGROV-1) was > 7 µM (inactive) and the GI50 (OVCAR-3) was > 5.56 µM (inactive). For the same molecule, the GI50 (PC-3) was > 10 µM (inactive), the GI50 (MDA-MB-231) was > 10 µM (inactive) and the GI50 (HT-29) was > 10 µM (inactive). The GI50 (RXF 393) was > 10 µM (inactive), the GI50 (DU-145) was > 10 µM (inactive) and the GI50 (HOP-92) was > 5.57 µM (inactive). The GI50 (HOP-62) was > 10 µM (inactive), the GI50 (A498) was > 10 µM (inactive) and the GI50 (SNB-75) was > 10 µM (inactive). The GI50 (UO-31) was > 4.47 µM (inactive), the GI50 (SK-MEL-28) was > 10 µM (inactive) and the GI50 (SF-268) was > 10 µM (inactive). For the same molecule, the GI50 (CAKI-1) was 2.96 µM (inactive), the GI50 (COLO 205) was 1.98 µM (inactive) and the GI50 (HCC 2998) was > 10 µM (inactive). For the same molecule, the GI50 (MOLT-4) was 1.31 µM (inactive), the GI50 (SK-OV-3) was > 10 µM (inactive) and the GI50 (SF-539) was > 10 µM (inactive). The GI50 (NCI-H460) was > 10 µM (inactive), the GI50 (OVCAR-4) was > 5.93 µM (inactive) and the GI50 (UACC-257) was > 5.09 µM (inactive). The GI50 (OVCAR-5) was > 10 µM (inactive), the GI50 (K562) was 3.17 µM (inactive) and the GI50 (HCT-15) was over 7.82 µM. The GI50 (Malme-3M) was 3.15 µM (inactive), the GI50 (U-251) was > 10 µM (inactive) and the GI50 (BT-549) was > 8.73 µM (inactive). The GI50 (KM12) was > 10 µM (inactive), the GI50 (NCI-H23) was > 10 µM (inactive) and the GI50 (HL-60) was 2.24 µM (inactive). The GI50 (NCI/ADR-RES) was > 7.21 µM (inactive), the GI50 (NCI-H226) was > 10 µM (inactive) and the GI50 (SF-295) was > 10 µM (inactive). For the same molecule, the GI50 (RPMI-8226) was 3.44 µM (inactive), the GI50 (LOX IMVI) was > 4.15 µM (inactive) and the GI50 (SK-MEL-2) was > 10 µM (inactive). The GI50 (MDA-N) was 9.68 µM (inactive), the GI50 (MCF7) was > 5.27 µM (inactive) and the GI50 (786-0) was > 4.41 µM (inactive). The GI50 (SN12C) was > 10 µM (inactive), the GI50 (CCRF-CEM) was 0.879 µM (active) and the GI50 (UACC-62) was > 10 µM (inactive). The GI50 (NCI-H522) was 2.88 µM (inactive), the GI50 (A549) was > 10 µM (inactive) and the GI50 (SW-620) was 2.47 µM (inactive). For the same molecule, the GI50 (ACHN) was 5.98 µM (inactive), the GI50 (MDA-MB-435) was > 10 µM (inactive) and the GI50 (SR) was 1.73 µM (inactive). The GI50 (TK-10) was > 5.86 µM (inactive) and the GI50 (T47D) was 4.79 µM (inactive).

Reference: ChEMBL document CHEMBL1201862, “PubChem BioAssay data set” (2004)
